These results are taken from US12209087B2, “AKT1 modulators” (Alterome Therapeutics, Inc., priority 2022, dated 2025).

The structures appear in SMILES notation. A value given as a limit tells only on which side of the number the result lay.

In one assay the target is T1, full length AKT E17K (Homo sapiens, UniProt P31749, E17K).
T1 construct: host or cells: HEK-293 (ATCC CRL-1573)
T1 sequence (P31749 whole entry E17K): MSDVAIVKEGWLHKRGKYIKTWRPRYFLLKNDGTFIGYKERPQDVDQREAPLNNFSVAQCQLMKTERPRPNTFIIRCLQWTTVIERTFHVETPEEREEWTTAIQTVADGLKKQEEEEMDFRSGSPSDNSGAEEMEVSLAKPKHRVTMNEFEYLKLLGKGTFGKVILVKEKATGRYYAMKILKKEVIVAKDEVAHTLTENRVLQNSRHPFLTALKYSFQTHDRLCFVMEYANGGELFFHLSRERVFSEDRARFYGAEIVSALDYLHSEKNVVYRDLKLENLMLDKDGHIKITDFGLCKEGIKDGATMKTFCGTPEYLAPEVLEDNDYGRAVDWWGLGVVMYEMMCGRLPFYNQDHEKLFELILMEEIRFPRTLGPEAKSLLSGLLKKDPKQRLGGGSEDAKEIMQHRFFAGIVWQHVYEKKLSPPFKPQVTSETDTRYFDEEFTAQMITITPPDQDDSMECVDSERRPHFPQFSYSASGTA
As to the kind of experiment: NanoBRET Target Engagement (TE) Assay. The settings on record: competitive displacement of tracer in cells, read-out: AKT1 E17K IC50. The assay is classed as cell-based. Put shortly:
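Compound and tracer incubated 2 h before luminescence at donor 450 nm and acceptor 600 nm, with extracellular signal inhibited. EC50 by sigmoidal variable-slope regression.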
(BRET reads energy transfer from a luciferase to a nearby fluorophore.)
Take `CN(C)c1cccc(-c2ccc3nc(-c4cccnc4N)n(-c4ccc(CN5CCC(Nc6ccnc(C#N)n6)CC5)cc4)c3n2)c1` [Example 521, 4-((1-(4-(2-(2-Aminopyridin-3-yl)-5-(3-(dimethylamino)phenyl)-3H-imidazo[4,5-b]pyridin-3-yl)benzyl)piperidin-4-yl)amino)pyrimidine-2-carbonitrile]: the IC50 (as a rule, the concentration that inhibits the measured activity by half) is less than 15 nM.

In the case of `N#Cc1nccc(NC2CCN(Cc3ccc(-n4c(-c5cccnc5N)nc5ccc(-c6ccc(C(F)(F)F)nc6)nc54)cc3)CC2)n1` [Example 646, 4-((1-(4-(2-(2-Aminopyridin-3-yl)-5-(6-(trifluoromethyl)pyridin-3-yl)-3H-imidazo[4,5-b]pyridin-3-yl)benzyl)piperidin-4-yl)amino)pyrimidine-2-carbonitrile], the IC50 is less than 15 nM.

As for `N#Cc1nccc(NC2CCC3(CC2)CN(Cc2ccc(-n4c(-c5cccnc5N)nc5ccc(-c6ccc(F)cc6)nc54)cc2)C3)n1` [Example 446, 4-((2-(4-(2-(2-Aminopyridin-3-yl)-5-(4-fluorophenyl)-3H-imidazo[4,5-b]pyridin-3-yl)benzyl)-2-azaspiro[3.5]nonan-7-yl)amino)pyrimidine-2-carbonitrile], the IC50 is 15 to 60 nM.

`Cc1cc(C)c2nc(-c3cccnc3N)n(-c3ccc(CN4CCC(Nc5ccnc(C#N)n5)CC4)cc3)c2n1` [Example 493, 4-((1-(4-(2-(2-Aminopyridin-3-yl)-5,7-dimethyl-3H-imidazo[4,5-b]pyridin-3-yl)benzyl)piperidin-4-yl)amino)pyrimidine-2-carbonitrile]: the IC50 is less than 15 nM.

In the case of `N#Cc1nccc(NC2CCN(Cc3ccc(-n4c(-c5cccnc5N)nc5ccc(-c6cnn(C7CC7)n6)nc54)cc3)CC2)n1` [Example 615, 4-((1-(4-(2-(2-Aminopyridin-3-yl)-5-(2-cyclopropyl-2H-1,2,3-triazol-4-yl)-3H-imidazo[4,5-b]pyridin-3-yl)benzyl)piperidin-4-yl)amino)pyrimidine-2-carbonitrile], the IC50 is less than 15 nM.

Consider `CS(=O)(=O)c1ccc2nc(-c3cccnc3N)n(-c3ccc(CN4CCC(Nc5ccnc(C#N)n5)CC4)cc3)c2n1` [Example 436, 4-((1-(4-(2-(2-Aminopyridin-3-yl)-5-(methylsulfonyl)-3H-imidazo[4,5-b]pyridin-3-yl)benzyl)piperidin-4-yl)amino)pyrimidine-2-carbonitrile], for which the IC50 is 60 to 600 nM.

For the compound `Cc1cnc(-c2ccc3nc(-c4cccnc4N)n(-c4ccc(CN5CCC(Nc6ccnc(C#N)n6)CC5)cc4)c3n2)nc1` [Example 604, 4-((1-(4-(2-(2-Aminopyridin-3-yl)-5-(5-methylpyrimidin-2-yl)-3H-imidazo[4,5-b]pyridin-3-yl)benzyl)piperidin-4-yl)amino)pyrimidine-2-carbonitrile], the IC50 is less than 15 nM.

On to `N#Cc1nccc(N2CC3(CCN(Cc4ccc(-n5c(-c6cccnc6N)nc6ccc(-c7ccc(F)cc7)nc65)cc4)CC3)C2)n1` [Example 490, 4-(7-(4-(2-(2-Aminopyridin-3-yl)-5-(4-fluorophenyl)-3H-imidazo[4,5-b]pyridin-3-yl)benzyl)-2,7-diazaspiro[3.5]nonan-2-yl)pyrimidine-2-carbonitrile], for which the IC50 is less than 15 nM.

In the case of `N#Cc1ccnc(NC2CCN(Cc3ccc(-n4c(-c5cccnc5N)nc5ccc(C6CC6)nc54)cc3)CC2)n1` [Example 351, 2-((1-(4-(2-(2-Aminopyridin-3-yl)-5-cyclopropyl-3H-imidazo[4,5-b]pyridin-3-yl)benzyl)piperidin-4-yl)amino)pyrimidine-4-carbonitrile], the IC50 is 15 to 60 nM.

`COc1ccc(-c2ccc3nc(-c4cccnc4N)n(-c4ccc(CN5CCC(Nc6ccnc(C#N)n6)CC5)cc4)c3n2)nc1` [Example 552, 4-((1-(4-(2-(2-Aminopyridin-3-yl)-5-(5-methoxypyridin-2-yl)-3H-imidazo[4,5-b]pyridin-3-yl)benzyl)piperidin-4-yl)amino)pyrimidine-2-carbonitrile]: the IC50 is less than 15 nM.

Take `N#Cc1nccc(NC2CCN(Cc3ccc(-n4c(-c5cccnc5N)nc5ccc(-c6ccnc(OC(F)F)c6)nc54)cc3)CC2)n1` [Example 543, 4-((1-(4-(2-(2-aminopyridin-3-yl)-5-(2-(difluoromethoxy)pyridin-4-yl)-3H-imidazo[4,5-b]pyridin-3-yl)benzyl)piperidin-4-yl)amino)pyrimidine-2-carbonitrile]: the IC50 is 15 to 60 nM.

As for `Cc1oncc1-c1ccc2nc(-c3cccnc3N)n(-c3ccc(CN4CCC(Nc5ccnc(C#N)n5)CC4)cc3)c2n1` [Example 463, 4-((1-(4-(2-(2-Aminopyridin-3-yl)-5-(5-methylisoxazol-4-yl)-3H-imidazo[4,5-b]pyridin-3-yl)benzyl)piperidin-4-yl)amino)pyrimidine-2-carbonitrile], the IC50 was less than 15 nM.

With `N#Cc1nccc(NC2CCN(Cc3ccc(-n4c(-c5cccnc5N)nc5ccc(-c6cccc(C(F)(F)F)c6)nc54)cc3)CC2)n1` [Example 530, 4-((1-(4-(2-(2-Aminopyridin-3-yl)-5-(3-(trifluoromethyl)phenyl)-3H-imidazo[4,5-b]pyridin-3-yl)benzyl)piperidin-4-yl)amino)pyrimidine-2-carbonitrile], the IC50 was 15 to 60 nM.

Regarding `N#Cc1nccc(NC2CCN(Cc3ccc(-n4c(-c5ccccc5N)nc5ccc(-c6ccc(F)cn6)nc54)cc3)CC2)n1` [Example 576, 4-((1-(4-(2-(2-Aminophenyl)-5-(5-fluoropyridin-2-yl)-3H-imidazo[4,5-b]pyridin-3-yl)benzyl)piperidin-4-yl)amino)pyrimidine-2-carbonitrile], the IC50 lay in the range of 15 to 60 nM.

Consider `N#Cc1nccc(NC2CCN(Cc3ccc(-n4c(-c5cccnc5N)nc5ccc(-c6ccc(OC7CC7)cn6)nc54)cc3)CC2)n1` [Example 585, 4-((1-(4-(2-(2-Aminopyridin-3-yl)-5-(5-cyclopropoxypyridin-2-yl)-3H-imidazo[4,5-b]pyridin-3-yl)benzyl)piperidin-4-yl)amino)pyrimidine-2-carbonitrile], for which the IC50 is less than 15 nM.

The assay is the same for the next values; noted with them: competitive tracer displacement in living cells, read-out: AKT1 E17K IC50.
As for `N#Cc1cccc(NC2CCN(Cc3ccc(-n4c(-c5cccnc5N)nc5cccnc54)cc3)CC2)n1` [Example 63, 6-((1-(4-(2-(2-Aminopyridin-3-yl)-3H-imidazo[4,5-b]pyridin-3-yl)benzyl)piperidin-4-yl)amino)picolinonitrile], the IC50 was 600 to 10000 nM.

Consider `CN(C)C(=O)c1ccc2nc(-c3cccnc3N)n(-c3ccc(CN4CCC(Nc5ccnc(C#N)n5)CC4)cc3)c2n1` [Example 289, 2-(2-aminopyridin-3-yl)-3-(4-((4-((2-cyanopyrimidin-4-yl)amino)piperidin-1-yl)methyl)phenyl)-N,N-dimethyl-3H-imidazo[4,5-b]pyridine-5-carboxamide], for which the IC50 was 60 to 600 nM.

Turning to `N#Cc1cccnc1C(=O)NC1CCN(Cc2ccc(-n3c(-c4cccnc4N)nc4cccnc43)cc2)CC1` [Example 28, N-(1-(4-(2-(2-Aminopyridin-3-yl)-3H-imidazo[4,5-b]pyridin-3-yl)benzyl)piperidin-4-yl)-3-cyanopicolinamide], the IC50 was 600 to 10000 nM.

Regarding `N#Cc1cc(N2CCN(Cc3ccc(-n4c(-c5cccnc5N)nc5ccc(-c6ccccc6F)nc54)cc3)CC2)ncn1` [Example 314, 6-(4-(4-(2-(2-Aminopyridin-3-yl)-5-(2-fluorophenyl)-3H-imidazo[4,5-b]pyridin-3-yl)benzyl)piperazin-1-yl)pyrimidine-4-carbonitrile], the IC50 is less than 15 nM.

Take `N#Cc1ccnc(C(=O)N2CCN(Cc3ccc(-n4c(-c5cccnc5N)nc5cccnc54)cc3)CC2)c1` [Example 149, 2-(4-(4-(2-(2-Aminopyridin-3-yl)-3H-imidazo[4,5-b]pyridin-3-yl)benzyl)piperazine-1-carbonyl)isonicotinonitrile]: the half-inhibitory concentration (IC50) fell in the range of 600 to 10000 nM.

For the compound `N#Cc1cc(N2CCN(Cc3ccc(-n4c(-c5cccnc5N)nc5ccc(-c6ccccc6)nc54)cc3)CC23CC3)ncn1` [Example 200, 6-(7-(4-(2-(2-Aminopyridin-3-yl)-5-phenyl-3H-imidazo[4,5-b]pyridin-3-yl)benzyl)-4,7-diazaspiro[2.5]octan-4-yl)pyrimidine-4-carbonitrile], the IC50 was in the range of 15 to 60 nM.

On to `N#Cc1ccc(NCc2ccc(-n3c(-c4cccnc4N)nc4cccnc43)cc2)cn1` [Example 128, 5-((4-(2-(2-Aminopyridin-3-yl)-3H-imidazo[4,5-b]pyridin-3-yl)benzyl)amino)picolinonitrile], for which the IC50 lay within 600 to 10000 nM.

As to `N#Cc1nccc(NC2CCN(Cc3ccc(-n4c(-c5cccnc5N)nc5ccc(-c6ccc(Cl)cc6)nc54)cc3)CC2)n1` [Example 308, 4-((1-(4-(2-(2-Aminopyridin-3-yl)-5-(4-chlorophenyl)-3H-imidazo[4,5-b]pyridin-3-yl)benzyl)piperidin-4-yl)amino)pyrimidine-2-carbonitrile], the IC50 is less than 15 nM.

In the case of `N#Cc1cccnc1OC1CCN(Cc2ccc(-n3c(-c4cccnc4N)nc4cccnc43)cc2)CC1` [Example 6, 2-((1-(4-(2-(2-aminopyridin-3-yl)-3H-imidazo[4,5-b]pyridin-3-yl)benzyl)piperidin-4-yl)oxy)nicotinonitrile], the IC50 fell in the range of 600 to 10000 nM.

As for `C[C@@H]1CN(Cc2ccc(-n3c(-c4cccnc4N)nc4ccc(-c5ccccc5)nc43)cc2)C[C@@H](C)N1c1ccnc(C#N)n1` [Example 195, 4-((2R,6R)-4-(4-(2-(2-aminopyridin-3-yl)-5-phenyl-3H-imidazo[4,5-b]pyridin-3-yl)benzyl)-2,6-dimethylpiperazin-1-yl)pyrimidine-2-carbonitrile], the IC50 is less than 15 nM.

With `N#Cc1cc(NC2C3CCC2CN(Cc2ccc(-n4c(-c5cccnc5N)nc5ccc(-c6ccccc6)nc54)cc2)C3)ncn1` (centres unmarked) [Example 202, 6-((3-(4-(2-(2-Aminopyridin-3-yl)-5-phenyl-3H-imidazo[4,5-b]pyridin-3-yl)benzyl)-3-azabicyclo[3.2.1]octan-8-yl)amino)pyrimidine-4-carbonitrile], the IC50 fell in the range of 600 to 10000 nM.
